Assay results from patent US20250327023A1, “TAURINE SUPPLEMENTED CELL CULTURE MEDIUM AND METHODS OF USE” (Regeneron Pharmaceuticals, Inc., priority 2015, published 2025).

Key:
Type in all cases: cell-based, Chinese hamster
[1] = test system: Ab1-producing CHO cells; test: Ammonia by-product in shake flask culture (Example 4); details: taurine supplemented medium
Protocol: […] The cells were subjected to varying culture conditions similar to above where glucose/nutrient base feed was added as needed.

[2] = test system: monoclonal antibody (Ab1) producing cell line derived from CHO-K1; test: Shake flask culture with varying taurine concentrations, 14 days, antibody titer (Example 2); details: for Ab1 % titer increase vs unsupplemented: day 14
Protocol: Consistency of the protein titer was tested by varying the amount of taurine added to the culture at production day 0. 250 mL shake flasks were inoculated from a seed culture of a monoclonal antibody (Ab1) producing cell line derived from CHO-K1. The inoculated cells were grown at 35.5° C. for fourteen days and fed glucose and other supplemental nutrients as needed. Cells were grown in chemically defined (hydrolysate-free and serum-free) base media. Each culture contained either no taurine (unsupplemented) or taurine at 0.1 mM, 0.3 mM, 0.5 mM, 0,7 mM, 1 mM, 3 mM, 5 mM, 7,5 mM or 10 mM concentrations.

[3] = test system: monoclonal antibody (Ab2) producing cell line derived from CHO-K1; test: Benchtop-scale 2L bioreactor culture, 14 days, antibody titer (Example 1B), Ab2; details: about 1 mM taurine on day 0, day 14; for Ab2 approximate titer increase relative to baseline: Bioreactor 2b vs 2a
Protocol: (§1) Example 1B—Benchtop-Scale Bioreactors: In a similar example, yet on a larger scale of production, 2L bioreactors were inoculated from a seed culture of a monoclonal antibody (Ab2, Ab3 or Ab4) producing cell line derived from CHO-K1. The inoculated cultures were grown at a temperature of 35.5° C., DO set point of 40.4% and air sparge of 22 ccm for 14 days. […] Glucose, antifoam and basal feed were supplied to the bioreactors as needed. Cultures were grown in unsupplemented medium (Bioreactor 2a, 3a, 4a) or grown in about 1 mM taurine-supplemented medium (Ab2 and Ab3) or about 3 mM taurine-supplemented medium (Ab4), added on day 0 of production (Bioreactors 2b, 3b and 4b, respectively).

[4] = test system: monoclonal antibody (Ab3) producing cell line derived from CHO-K1; test: Benchtop-scale 2L bioreactor culture, 14 days, antibody titer (Example 1B), Ab3; details: about 1 mM taurine on day 0; for Ab3 approximate titer increase at day 6 compared to unsupplemented medium collected on same day / Ab3 approximate titer increase at day 9 compared to unsupplemented medium collected on same day / Ab3 approximate titer increase relative to baseline: Bioreactor 3b vs 3a
Protocol: as §1

[5] = test system: Ab1-producing CHO cells; test: Shake flask culture, varying taurine feeding schedules during production phase, antibody titer (Example 3B)
Protocol: Example 3B: Varying Taurine Feeding Schedules during Production Phase: To determine whether varying standard feeding schedules of taurine had any effect on the protein titer for taurine-supplemented cultures, additional experiments were conducted in analogous shake flask cultures growing Ab1-producing CHO cells. The cells were subjected to varying culture conditions similar to Example 2, where the feeding schedule was the same as before, glucose/nutrient basal feed was added as needed. Ab1-producing cultures were supplemented with a total of 5 mM taurine Similar productivity (7.1 g/L, 6.8 g/L and 7.0 g/L) is observed in varying taurine feeding schedules. Titer values as compared in this experiment are not statistically different (p>0.1) (see Table 7).

[6] = test system: Ab1-producing CHO cells; test: Shake flask culture, taurine in seed train expansion and/or production phase, 17 days, antibody titer (Example 3A); details: day 17
Protocol: The benefits of adding taurine to the culture during the expansion seed train phase were assessed in the high-throughput shake flask model. In flask 6a (Table 6), the Ab1-producing CHO cells were thawed in chemically defined (hydrolysate-free and serum-free) base media supplemented with 1 mM taurine. Taurine concentration of basal medium was maintained at 1 mM throughout the expansion phase. During production, the culture basal medium was supplemented with 1 mM taurine on day 0. Glucose and nutrient basal feed were supplied as needed during the 17 day production. Flask 6b cells grew in taurine-free (unsupplemented) chemically defined (hydrolysate-free and serum-free) basal medium throughout the seed train expansion phase. At day 0 of production, the culture basal medium was supplemented with 1 mM taurine. For the 17 day production, glucose and nutrient basal feeds were supplied as needed.

[7] = test system: monoclonal antibody (Ab4) producing cell line derived from CHO-K1; test: Benchtop-scale 2L bioreactor culture, 14 days, antibody titer (Example 1B), Ab4; details: about 3 mM taurine on day 0, day 14; for Ab4 approximate titer increase relative to baseline: Bioreactor 4b vs 4a
Protocol: as §1

[8] = test system: monoclonal antibody (Ab1) producing cell line derived from CHO-K1; test: High-throughput shake flask culture, 17 days, antibody titer (Example 1A); details: 1 mM taurine at day 0
Protocol: Example 1A—High-Throughput Shake Flask Culture: 250 mL shake flasks were inoculated from a seed culture of a monoclonal antibody (Abl) producing cell line derived from CHO-K1. The inoculated cells were grown at 35.5° C. for seventeen days and fed glucose and other supplemental nutrients as needed. Cells were grown in chemically defined (hydrolysate-free and serum-free) base media. Each culture flask was either unsupplemented (Flask 1a), or supplemented with 1 mM taurine at day 0 (Flask 1 b).

[9] = 0.1 mM taurine at day 0, shake flask 5b
[10] = 0.3 mM taurine at day 0, shake flask 5c
[11] = 0.5 mM taurine at day 0, shake flask 5d
[12] = 0.7 mM taurine at day 0, shake flask 5e
[13] = 1 mM taurine at day 0, shake flask 5f
[14] = 5 mM taurine at day 0, shake flask 5g
[15] = 7.5 mM taurine at day 0, shake flask 5h
[16] = 10 mM taurine at day 0, shake flask 5i

SMILES: NCCS(=O)(=O)O [Taurine, 2-aminoethanesulfonic acid]
- Abl Ammonia (average 17-day ammonia) [1]: 1.73 mM″
- Ammonia decrease compared to unsupplemented medium ([1]; listed as taurine): 32%
- Ab1 Titer (average 14-day) [2, 9]: 6.7 g/L
- Ab1 % titer increase vs unsupplemented [2, 9]: 3%
- Ab1 Titer (average 14-day) [2, 10]: 6.8 g/L
- Ab1 % titer increase vs unsupplemented [2, 10]: 5%
- Ab1 Titer (average 14-day) [2, 11]: 6.9 g/L
- Ab1 % titer increase vs unsupplemented [2, 11]: 6%
- Ab1 Titer (average 14-day) [2, 12]: 7.0 g/L
- Ab1 % titer increase vs unsupplemented [2, 12]: 8%
- Ab1 Titer (average 14-day) [2, 13]: 7.0 g/L
- Ab1 % titer increase vs unsupplemented [2, 13]: 8%
- Ab1 Titer (average 14-day) [2, 14]: 7.1 g/L
- Ab1 % titer increase vs unsupplemented [2, 14]: 9%
- Ab1 Titer (average 14-day) [2, 15]: 7.1 g/L
- Ab1 % titer increase vs unsupplemented [2, 15]: 9%
- Ab1 Titer (average 14-day) [2, 16]: 7.1 g/L
- Ab1 % titer increase vs unsupplemented [2, 16]: 9%
- Ab2 Titer (average 14 day antibody titer) ([3]; Bioreactor 2b): 8 g/L
- Ab2 approximate titer increase relative to baseline [3]: 24%
- Ab2 approximate titer increase relative to baseline ([3]; listed as taurine): 24%
- Ab3 Titer at day 6 ([4]; Bioreactor 3b, day 6): 1.9 g/L
- Ab3 Titer at day 9 ([4]; Bioreactor 3b, day 9): 5.3 g/L
- Ab3 Titer (average 14 day antibody titer) ([4]; Bioreactor 3b, day 14): 7.3 g/L
- Ab3 approximate titer increase at day 6 compared to unsupplemented medium collected on same day ([4]; day 6): 12%
- Ab3 approximate titer increase at day 6 compared to unsupplemented medium collected on same day ([4]; day 6, listed as taurine): 12%
- Ab3 approximate titer increase at day 9 compared to unsupplemented medium collected on same day ([4]; day 9): 29%
- Ab3 approximate titer increase at day 9 compared to unsupplemented medium collected on same day ([4]; day 9, listed as taurine): 29%
- Ab3 approximate titer increase relative to baseline ([4]; day 14): 11%
- Ab3 approximate titer increase relative to baseline ([4]; day 14, listed as taurine): 11%
- Ab1 Day 14 Titer ([5]; taurine schedule: 1 mM day 0, 2 mM days 7, 10 (5 mM total)): 7.0 g/L
- Ab1 Day 14 Titer ([5]; taurine schedule: 1 mM days 0, 3, 5, 7, 10 (5 mM total)): 6.8 g/L
- Ab1 Day 14 Titer ([5]; taurine schedule: 5 mM day 0): 7.1 g/L
- Ab1 Titer (average 17-day) ([6]; 1 mM taurine in Only Production Phase, shake flask 6b): 7.8 g/L
- Ab1 Titer (average 17-day) ([6]; 1 mM taurine in Seed Train and Production Phases, shake flask 6a): 7.7 g/L
- Ab4 Titer (average 14 day antibody titer) ([7]; Bioreactor 4b): 5.3 g/L
- Ab4 approximate titer increase relative to baseline [7]: 20%
- Ab4 approximate titer increase relative to baseline ([7]; listed as taurine): 20%
- Abl Titer (average 17-day antibody titer) ([8]; 250 mL shake flask 1b, harvested day 17): 7.9 g/L
- Approximate titer increase relative to baseline ([8]; day 17, Flask 1b vs unsupplemented Flask 1a): 8%
